In patent US7449495B2, “Retinoid derivatives with antiangiogenic, antitumoral and proapoptotic activities” (Sigma-Tau Industrie Farmaceutiche Riunite S.p.A., priority 2001, dated 2008):
“And” between values parts separate entries of the source, which are not always exact repeats. Equal entries are not always repeated.

Experiments:
[1] = system: Human colon adenocarcinoma LoVo; experiment: Cytotoxicity test (sulphorodamine B), LoVo; format: cell-based; conditions: 24 h incubation, survival 48 h after removal, read-out: IC50 ± SD
Source text: (§1) Different cell lines deriving from solid tumors were also used. • 1. Human prostate carcinoma PC3 and DU145. These cell lines were maintained in RPMI 1640 medium containing 10% FCS, 1% sodium pyruvate and 1% glutamine; • 2. Human colon adenocarcinoma LoVo. This cell line was maintained in HAM's F-12 medium, containing 10% FCS and 1% glutamine. • 3. Human ovarian carcinoma such as A2780 and A2780/Dx, sensitive and resistant to drugs, respectively (doxorubicin, taxol, etoposide, vincristine); IGROV-1 and IGROV-1/Pt, sensitive and resistant to platinum-based chemotherapy, respectively, were maintained in RPMI 1640 medium containing 10% FCS, 1% sodium pyruvate and 1% glutamine; • 4. Human melanoma MeWo and MeS 2.21, glioblastoma GBM, no small cell lung carcinomas A431, NCI—H460, osteosarcomas SAOS and U2OS were maintained in RPMI 1640 medium containing 10% FCS, 1% sodium pyruvate and 1% glutamine.
(§2) The cytotoxicity tests were carried out using NB4 or HL-60 cells in suspension (10000/well). The cells were seeded in a volume of 250 μl in 96 well plates and incubated for 24 hours at 37° C. […] The optical density was measured using a Multiskan spectrophotometer at 540 nm. […]
(§3) Cell survival was determined by incubation with ST1926 for 24 hours, 48 hours after the removal of the compound. […]

[2] = system: chicken chorioallantoic membrane vessels, bFGF induced; experiment: Angiostatic activity in chicken chorioallantoic membrane (CAM) model; format: in vivo; conditions: for 12th day (72 hours), number of vessels per sponge / Δvessels: mean ± SE
Source text: The chicken chorioallantoic membrane is a very vascularised membrane in which the vessels make their appearance at the 4th day of development, develop an arteriovenal system by the 8th day of development, and actively proliferate until the 11th day.
The aim of the study was to follow vasal development in the CAM under basal conditions and in the presence of an inducer bFGF (basic Fibroblast Growth Factor) of vasoproliferation. This study used chicken embryonal eggs at the initial stage of their development. On the 3rd day of development an operation to open the shells was performed to make the vessels of the CAM visible. The treatment was administered on the 9th day of development by applying a fragment of sterile gelatine (GELFOAM Pharmacia-Upjohn) about 1 mm^3, to the CAM surface, onto which was administered the bFGF (50 ng/embryo) or the products in question, for 3 consecutive days.
The evaluation of the effect of the molecule on vasoproliferation was obtained by a comparison of the vessels at the time of zero treatment with these of later times (12th day).

[3] = system: Human prostate carcinoma PC3; experiment: Cytotoxicity test (sulphorodamine B), PC3; format: cell-based; conditions: 24 h incubation, survival 48 h after removal, read-out: IC50 ± SD
Source text: as §1, §2, §3

[4] = system: NB4 acute promyelocytic leukaemia cell line; experiment: Cytotoxicity test (sulphorodamine B), NB4; format: cell-based, human; conditions: Homo sapiens, 24 h incubation, survival 48 h after removal, read-out: IC50 ± SD
Source text: To carry out the cytotoxicity tests, two acute promyelocytic leukaemia (APL) cell lines were used. • 1. Cell line NB4, carrying the chromosomal translocation t(15; 17) which generates the fusion protein PML/RARα. This cell line is extremely sensitive to the differentiating action of pharmaceutical doses of ATRA (10^−7-10^−6 M); • 2. Cell line HL60, which responds to ATRA less sensitively with respect to cell line NB4.
These cell lines were maintained in RPMI 1640 containing 10% foetal calf serum (FCS) and 1% glutamine.
The cytotoxicity tests were carried out using NB4 or HL-60 cells in suspension (10000/well). The cells were seeded in a volume of 250 μl in 96 well plates and incubated for 24 hours at 37° C. The following day, test compound ST 1926 [(2E)-3-[3′-(1-Adamantyl)-4′-hydroxy[1,1′-biphenyl]-4-yl]-2-propenoate/ic acid] was added at increasing concentrations, and the cells were incubated for a further 24 hours at 37° C. in a humidified atmosphere containing 5% CO2. On the 3rd day, the medium was removed by centrifuging the plate at 1600×g for 10 min and the supernatant decanted. 250 μl of PBS were added; then the plates were centrifuged again at 1600×g for 10 minutes and the supernatant decanted. 200 μl/well of RPMI 1640 medium containing 10% FCS were added and the plates were incubated at 37° C. for a further 48 hours. On the 5th day, the plates were again centrifuged at 1600×g for 10 minutes, and the medium was removed by upturning the plates, 200 μl of PBS and 50 μl of cold, 80% TCA were added. The plates were then left to incubate on ice for at least 1 hour. The TCA was removed by upturning; the plates were washed three times by immersion in distilled water and dried first on paper, then with a jet of hot air. To all wells were added 200 μl of 0.4% sulphorodamine B in 1% acetic acid. The plates were incubated at room temperature for a further 30 minutes. […] The optical density was measured using a Multiskan spectrophotometer at 540 nm.
as §3

NB4 cells = experiment: Pro-differentiating effect on NB4 cells (NBT); format: cell-based; conditions: Homo sapiens, NB-4, 72 h, NB4, three days, read-out: AC50 (activating concentration for 50% cellular differentiation) ± SD
Description: NB4 cells were plated at a density of 150000 cells/ml in RPMI 1640 medium containing 10% foetal serum. The cells were then treated with ST1879 or ST1898 at decreasing concentrations starting from 0.4 μM to 0.01 μM and placed in an incubator for three days without any change of the media. To measure the differentiating effect 500000 cells from each sample were collected, centrifuged and resuspended in 1 ml of RPMI 1640 medium containing 10% serum, 1 mg/ml nitroblue tetrazolium (NBT) and 100 ng of PMA (phorbol myristyl acetate). The cells, resuspended as above, were incubated at 37° C. for 60 minutes. At the conclusion of incubation the cells were centrifuged and the precipitate resuspended in 1 ml of PBS containing 10% Triton ×100. The samples were sonicated until lysed and then read by spectrophotometer at a wavelength of 540 nm. Samples containing differentiated cells turn a purplish colour whilst the control samples and/or these with non differentiated cells remain white or much less intensely coloured. The pro-differentiating action of ST1879 or of ST1898 has been evaluated in terms of AC50 (activating concentration for 50% cellular differentiation) as reported below.

[5] = system: human microvascular endothelial (HMVE) cells; conditions: after 96 h of treatment, cited from earlier work; for inhibition (%) at 0.5 μM: relative to vehicle alone control; for IC50: highest concentration evaluated 0.5 μM, read-out: IC50 (concentration inhibiting proliferation by 50%)
[6] = system: human no small cell lung carcinoma NCI-H460; experiment: Antitumoral activity in human no small cell lung carcinoma model NCI-H460; format: in vivo; conditions: NCI-H460, 15 mg/kg ip, q7dx3
Description: The ST1926 solution was prepared immediately before use and solubilised in cremophor:ethanol 1:1 and subsequently diluted 1:4 in buffered saline solution. The animal treatments were administered in a volume of 10 ml/kg. […] Measurements of tumor dimensions were performed using a digital calliper (Vernier Caliper) twice weekly, from the time in which the mass was measurable. The tumor mass was evaluated from the size of the two principal dimensions (length and breadth), expressed in mm, applying the formula (length×breadth^2)/2, that is, the tumor volume in mm3. For each experimental group, the percentage of tumor volume inhibition was calculated (TVI %), with respect to the control, namely (100−(T/C %). TVI was evaluated 2 days after the final administration of ST1926.
A comparison between the TVI values obtained for each group was performed using the non parametric Mann Whitney test for non-paired data, using the Instat software from GraphPad inc.

[7] = bFGF 0.05 + compound 0.25 μg/embryo

With COc1ccc(-c2ccc(/C=C/C(=O)O)cc2)cc1C12CC3CC(CC(C3)C1)C2 [ST1898, E-4-(3-(1-adamantyl)-4-methoxyphenyl)cinnamic acid] the IC50 [1] was 0.38 ± 0.02 µM, the “Δvessels, change vs bFGF alone” value [2, 7] was “(−71%)” and the “12th day (72 hours), number of vessels per sponge” value [2, 7] was 10 ± 1 vessels per sponge. For the same compound, the Δvessels [2, 7] was 7 ± 1 vessels per sponge, the IC50 [3] was 1.7 ± 0.2 µM and the IC50 [4] was 8.8 ± 0.6 µM. It also gave an AC50 (NB4 cells) of 0.019 µM.
In the case of CC1=C(/C=C/C(C)=C/C=C/C(C)=C/C(=O)O)C(C)(C)CCC1 [trans-RA (7), trans-Retinoic Acid], the “inhibition (%) at 0.5 μM” value [5] is listed as 10% and the IC50 [5] is listed as > 0.5 µM.
For O=C(O)c1ccc2c(Cl)c(-c3ccc(O)c(C45CC6CC(CC(C6)C4)C5)c3)ccc2c1 [5-Cl-AHPN (2)], the “inhibition (%) at 0.5 μM” value [5] is given as 45%.
With CC(=O)O[C@H]1C(=O)[C@@]2(C)[C@H]([C@H](OC(=O)c3ccccc3)[C@]3(O)C[C@H](OC(=O)[C@H](O)[C@@H](NC(=O)c4ccccc4)c4ccccc4)C(C)=C1C3(C)C)[C@]1(OC(C)=O)CO[C@@H]1C[C@@H]2O [Taxol, reference compound] the “BWL % Max” value [6] was 4%, the Lethality [6] was 0/8 and the “TVI % ± SE” value [6] was 0%.
Work on COc1ccc(-c2ccc(/C=C/CO)cc2)cc1C12CC3CC(CC(C3)C1)C2 [Example 7, E-4-(3-(1-adamantyl)-4-methoxyphenyl)cinnamyl alcohol] yielded a melting point of 148 °C.
In the case of “bFGF: basic Fibroblast Growth Factor, inducer of vasoproliferation in the CAM model [reference compound]”, the “12th day (72 hours), number of vessels per sponge” value ([2]; bFGF 0.05 μg/embryo alone) is reported as 28 ± 2 vessels per sponge and 19 ± 1 vessels per sponge and 22 ± 1 vessels per sponge and the Δvessels ([2]; bFGF 0.05 μg/embryo alone) is reported as 24 ± 1 vessels per sponge and 15 ± 1 vessels per sponge and 19 ± 1 vessels per sponge.
For O=C(O)/C=C/c1ccc(-c2ccc(O)c(C34CC5CC(CC(C5)C3)C4)c2)c(Cl)c1 [3-Cl-AHPC (5)], the “inhibition (%) at 0.5 μM” value [5] is listed as 60% and the IC50 [5] is listed as 0.3 µM.
